The target in assay [1] is T1, human type 2 5α-reductase (Homo sapiens, UniProt P31213).
T1 sequence (P31213 1-254): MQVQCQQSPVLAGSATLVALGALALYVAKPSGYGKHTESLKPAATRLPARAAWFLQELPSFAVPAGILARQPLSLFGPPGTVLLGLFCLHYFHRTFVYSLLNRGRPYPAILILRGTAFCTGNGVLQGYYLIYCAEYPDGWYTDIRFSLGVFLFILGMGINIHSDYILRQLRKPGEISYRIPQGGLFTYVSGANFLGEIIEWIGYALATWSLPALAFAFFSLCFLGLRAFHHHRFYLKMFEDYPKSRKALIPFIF
Nature of the assay: 5α-reductase in vitro inhibitory activity, human type 2.

Assay [2] concerns the target T2, human type 1 5α-reductase (Homo sapiens, UniProt P18405).
T2 sequence (P18405 1-259): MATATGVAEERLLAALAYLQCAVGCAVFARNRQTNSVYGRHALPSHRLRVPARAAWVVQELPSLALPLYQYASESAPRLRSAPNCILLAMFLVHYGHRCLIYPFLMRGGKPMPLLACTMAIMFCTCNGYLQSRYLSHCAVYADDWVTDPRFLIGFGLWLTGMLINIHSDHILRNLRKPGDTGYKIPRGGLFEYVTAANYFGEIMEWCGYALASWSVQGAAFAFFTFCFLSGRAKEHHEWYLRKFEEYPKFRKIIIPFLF
Briefly: 5α-reductase in vitro inhibitory activity, human type 1.

pIC50: −log10 of the molar value.

One may read the pIC50 as the negative decadic logarithm of the IC50, by convention in mol/L. A low value points to a large IC50. Consider `CC(C)(C)c1ccc(C2(NC(=O)[C@H]3CC[C@H]4[C@@H]5CNC6=CC(=O)CC[C@]6(C)[C@H]5CC[C@]34C)CCCC2)cc1` [Compound 121, 17β-N-1-(4-t-Butylphenyl)cyclopentyl-carbamoyl-6-azaandrost-4-en-3-one], for which the pIC50 in assay [1] and in assay [2] was over 8.00 in each case.
With `CCC1(CC)CC1(NC(=O)[C@H]1CC[C@H]2[C@@H]3CNC4=CC(=O)CC[C@]4(C)[C@H]3CC[C@]12C)c1ccc(-c2ccccc2)cc1` (stereo partly drawn) [Compound 130, 17β-N-(1-(4-Biphenyl)-2,2-diethyl)cyclopropyl-carbamoyl-6-azaandrost-4-en-3-one], the pIC50 in assay [1] and in assay [2] was over 8.00 throughout.
For the molecule `CC(C)(C)c1ccc(NC(=O)[C@H]2CC[C@H]3[C@@H]4CNC5=CC(=O)CC[C@]5(C)[C@H]4CC[C@]23C)c(Br)c1` [Compound 71, 17β-N-(2-Bromo-4-t-butyl)phenyl-carbamoyl-6-azaandrost-4-en-3-one], the pIC50 in assay [1] was over 8.00; in assay [2] it was 7.00 to 8.00.
The like results for `CC(C)(C)c1ccc(C2(NC(=O)[C@H]3CC[C@H]4[C@@H]5CNC6=CC(=O)CC[C@]6(C)[C@H]5CC[C@]34C)C3CCCC2CCC3)cc1` (stereo partly drawn) [Compound 144, 17β-N-9-(4-t-Butylphenyl)bicyclo[3.3.1]nonyl-carbamoyl-6-azaandrost-4-en-3-one] were, in that order, over 8.00 and over 8.00.
The like results for `CCc1cc(Br)cc(CC)c1NC(=O)[C@H]1CC[C@H]2[C@@H]3CNC4=CC(=O)CC[C@]4(C)[C@H]3CC[C@]12C` [Compound 70, 17β-N-(2,6-Diethyl-4-bromo)phenyl-carbamoyl-6-azaandrost-4-en-3-one] were, in that order, over 8.00 and 7.00 to 8.00.
The like results for `CC(C)(C)c1ccc(NC(=O)[C@H]2CC[C@H]3[C@@H]4CNC5=CC(=O)CC[C@]5(C)[C@H]4CC[C@]23C)c([N+](=O)[O-])c1` [Compound 82, 17β-N-(2-Nitro-4-t-butyl)phenyl-carbamoyl-6-azaandrost-4-en-3-one] were, in that order, over 8.00 and over 8.00.
Consider `C[C@]12CC[C@H]3[C@@H](CNC4=CC(=O)CC[C@@]43C)[C@@H]1CC[C@@H]2C(=O)Nc1cc(C(F)(F)F)ccc1-c1ccccc1` [Compound 112, 17β-N-(2-Phenyl-5-trifluoromethyl)phenyl-carbamoyl-6-azaandrost-4-en-3-one], for which the values for the negative logarithm of the IC50 (pIC50) in assay [1] and in assay [2] were over 8.00 and 7.00 to 8.00, respectively.
The like results for `CCOC(=O)c1ccc(NC(=O)[C@H]2CC[C@H]3[C@@H]4CNC5=CC(=O)CC[C@]5(C)[C@H]4CC[C@]23C)cc1` [Compound 134, 17β-N-(4-Carboethoxy)phenyl-carbamoyl-6-azaandrost-4-en-3-one] were, in that order, over 8.00 and 7.00 to 8.00.
The like results for `CCc1cc(-c2ccc(Cl)cc2)cc(CC)c1NC(=O)[C@H]1CC[C@H]2[C@@H]3CNC4=CC(=O)CC[C@]4(C)[C@H]3CC[C@]12C` [Compound 140, 17β-N-(2,6-Diethyl-4-(4-chlorophenyl))phenyl-carbamoyl-6-azaandrost-4-en-3-one] were, in that order, over 8.00 and over 8.00.
The like results for `CC1(C)Cc2ccccc2C1NC(=O)[C@H]1CC[C@H]2[C@@H]3CNC4=CC(=O)CC[C@]4(C)[C@H]3CC[C@]12C` (stereo partly drawn) [Compound 110, 17β-N-1-(2,2-Dimethyl)indanyl-carbamoyl-6-azaandrost-4-en-3-one] were, in that order, over 8.00 and 7.00 to 8.00.
Consider `CCOc1ccc(OCC)c(NC(=O)[C@H]2CC[C@H]3[C@@H]4CNC5=CC(=O)CC[C@]5(C)[C@H]4CC[C@]23C)c1` [Compound 119, 17β-N-(2,5-Diethoxy)phenyl-carbamoyl-6-azaandrost-4-en-3-one], for which the pIC50 is over 8.00 in assay [1] and 7.00 to 8.00 in assay [2].
The like results for `CCC(CC)(NC(=O)[C@H]1CC[C@H]2[C@@H]3CNC4=CC(=O)CC[C@]4(C)[C@H]3CC[C@]12C)c1ccccc1` [Compound 103, 17β-N-(1-Ethyl-1-phenyl)propyl-carbamoyl-6-azaandrost-4-en-3-one] were, in that order, over 8.00 and 7.00 to 8.00.
As for `Cc1ccc(Oc2ccc(C(F)(F)F)cc2NC(=O)[C@H]2CC[C@H]3[C@@H]4CNC5=CC(=O)CC[C@]5(C)[C@H]4CC[C@]23C)cc1` [Compound 79, 17β-N-(2-(O-4-Tolyl)-5-trifluoromethyl)phenyl-carbamoyl-6-azaandrost-4-en-3-one], the figures for the negative logarithm of the IC50 (pIC50) in assay [1] and in assay [2] were over 8.00 and 7.00 to 8.00, respectively.
For `C[C@]12CC[C@H]3[C@@H](CNC4=CC(=O)CC[C@@]43C)[C@@H]1CC[C@@H]2C(=O)Nc1ccccc1C(=O)c1ccccc1` [Compound 123, 17β-N-(2-Benzoyl)phenyl-carbamoyl-6-azaandrost-4-en-3-one], in that order: over 8.00 and 7.00 to 8.00.
The like results for `C[C@]12CC[C@H]3[C@@H](CNC4=CC(=O)CC[C@@]43C)[C@@H]1CC[C@@H]2C(=O)NC1(c2ccc(F)cc2)CCCCC1` [Compound 109, 17β-N-1-(4-Fluorophenyl)cyclohexyl-carbamoyl-6-azaandrost-4-en-3-one] were, in that order, over 8.00 and over 8.00.
For `C[C@]12CC[C@H]3[C@@H](CNC4=C(Cl)C(=O)CC[C@@]43C)[C@@H]1CC[C@@H]2C(=O)Nc1cc(C(F)(F)F)ccc1C(F)(F)F` [Compound 126, 17β-N-(2,5-bis(Trifluoromethyl))phenyl-carbamoyl-6-azaandrost-4-chloro-4-en-3-one], in that order: over 8.00 and over 8.00.
In the case of `C[C@]12CC[C@H]3[C@@H](CNC4=CC(=O)CC[C@@]43C)[C@@H]1CC[C@@H]2COC(=O)Oc1ccccc1` [Compound 90, 17β-Hydroxymethyl-(phenylcarbonate)-6-azaandrost-4-en-3-one], the pIC50 in assay [1] and in assay [2] was over 8.00 throughout.
For the molecule `CC(C)(C)c1ccc(NC(=O)[C@H]2CC[C@H]3[C@@H]4CNC5=CC(=O)CC[C@]5(C)[C@H]4CC[C@]23C)cc1[N+](=O)[O-]` [Compound 92, 17β-N-(3-Nitro-4-t-butyl)phenyl-carbamoyl-6-azaandrost-4-en-3-one], the pIC50 was over 8.00 in assay [1] and 7.00 to 8.00 in assay [2].
For the molecule `CC(C)(C)c1ccc(Cl)cc1NC(=O)[C@H]1CC[C@H]2[C@@H]3CNC4=CC(=O)CC[C@]4(C)[C@H]3CC[C@]12C` [Compound 75, 17β-N-(5-Chloro-2-t-butyl)phenyl-carbamoyl-6-azaandrost-4-en-3-one], the pIC50 in assay [1] and in assay [2] was over 8.00 throughout.
As to `CCc1c(Cl)cc(Cl)c(CC)c1NC(=O)[C@H]1CC[C@H]2[C@@H]3CNC4=CC(=O)CC[C@]4(C)[C@H]3CC[C@]12C` [Compound 54, 17β-N-(2,6-Diethyl-3,5-dichloro)phenyl-carbamoyl-6-azaandrost-4-en-3-one], the pIC50 in assay [1] is over 8.00; in assay [2], 7.00 to 8.00.
For `CCS(=O)(=O)c1ccc(C(F)(F)F)cc1NC(=O)[C@H]1CC[C@H]2[C@@H]3CNC4=CC(=O)CC[C@]4(C)[C@H]3CC[C@]12C` [Compound 85, 17β-N-(2-Ethylsulfonyl-5-trifluoromethyl)phenyl-carbamoyl-6-azaandrost-4-en-3-one], in that order: over 8.00 and over 8.00.
On to `CC(C)(C)c1ccc(-c2ccc(C(C)(C)C)c(NC(=O)[C@H]3CC[C@H]4[C@@H]5CNC6=CC(=O)CC[C@]6(C)[C@H]5CC[C@]34C)c2)cc1` [Compound 147, 17β-N-(2-t-Butyl-5-(4-t-butyl)phenyl)phenyl-carbamoyl-6-azaandrost-4-en-3-one], for which the pIC50 in assay [1] and in assay [2] was over 8.00 in each case.
Take `C[C@]12CC[C@H]3[C@@H](CNC4=CC(=O)CC[C@@]43C)[C@@H]1CC[C@@H]2C(=O)Nc1cc(C(F)(F)F)cc(C(F)(F)F)c1` [Compound 57, 17β-N-(3,5-Ditrifluoromethyl)phenyl-carbamoyl-6-azaandrost-4-en-3-one]: the pIC50 in assay [1] and in assay [2] was 7.00 to 8.00 throughout.
On to `CC(C)C(NC(=O)[C@H]1CC[C@H]2[C@@H]3CNC4=CC(=O)CC[C@]4(C)[C@H]3CC[C@]12C)c1ccc(Cl)cc1` (stereo partly drawn) [Compound 65, 17β-N-(1-(4-Chlorophenyl)-2-methyl)propyl-carbamoyl-6-azaandrost-4-en-3-one], for which the pIC50 in assay [1] was over 8.00; in assay [2], 7.00 to 8.00.
The like results for `C[C@]12CC[C@H]3[C@@H](CNC4=CC(=O)CC[C@@]43C)[C@@H]1CC[C@@H]2C(=O)c1ccc(F)cc1F` [Compound 26, 17β-(1-Oxo-1-(2,4-difluorophenyl)methyl)-6-azaandrost-4-en-3-one] were, in that order, over 8.00 and 7.00 to 8.00.
For `CC1=C2NC[C@H]3[C@@H]4CC[C@H](C(=O)Nc5cc(C(F)(F)F)ccc5C(C)(C)C)[C@@]4(C)CC[C@@H]3[C@@]2(C)CCC1=O` [Compound 117, 17β-N-(2-t-Butyl-5-trifluoromethyl)phenyl-carbamoyl-6-azaandrost-4-methyl-4-en-3-one], in that order: over 8.00 and over 8.00.
For the molecule `CCOC(=O)c1ccccc1NC(=O)[C@H]1CC[C@H]2[C@@H]3CNC4=CC(=O)CC[C@]4(C)[C@H]3CC[C@]12C` [Compound 114, 17β-N-(2-Carboethoxy)phenyl-carbamoyl-6-azaandrost-4-en-3-one], the pIC50 was over 8.00 in assay [1] and 7.00 to 8.00 in assay [2].

Values taken from patent EP0674651B1, “SUBSTITUTED 6-AZAANDROSTENONES” (priority 1992, dated 1994).
